Assay results published in patent US20200239530A1, “COMPOUNDS AND METHODS OF MODULATING PROTEIN DEGRADATION” (Vividion Therapeutics, Inc., priority 2017, published 2020).

Assays:
Assay in all cases: Cysteine liganding, probe competition
Type in all cases: binding
LGMN Legumain = biological target: T1, LGMN Legumain (Homo sapiens, UniProt Q99538); settings: for 100 Max / 100 ave / 500 Max / 500 ave: uniprot Q99538
T1 construct: Cells were resuspended in cold PBS on ice and sonicated with a probe sonicator to achieve lysis; endogenous in cells
T1 sequence (Q99538 18-323): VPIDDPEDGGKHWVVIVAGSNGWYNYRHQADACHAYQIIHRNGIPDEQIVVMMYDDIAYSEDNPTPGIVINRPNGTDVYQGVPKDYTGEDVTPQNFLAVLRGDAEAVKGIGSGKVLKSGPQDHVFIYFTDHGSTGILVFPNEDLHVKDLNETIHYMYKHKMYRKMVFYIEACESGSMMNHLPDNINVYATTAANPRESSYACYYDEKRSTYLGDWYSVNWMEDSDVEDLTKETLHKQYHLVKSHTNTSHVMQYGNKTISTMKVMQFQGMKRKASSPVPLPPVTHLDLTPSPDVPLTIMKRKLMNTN
Method in brief: (§1)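 Probe competition in native proteome: 5 mg/ml lysate, compound 1 hr 25° C, then desthiobiotin iodoacetamide (10 mM stock) 1 hr 25° C; acetone ppt, urea/DTT reduction, iodoacetamide alkylation, trypsin, streptavidin pull-down.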

[1] = biological target: T2, NOP56 Nucleolar protein 56 (Homo sapiens, UniProt O00567)
T2 construct: Cells were resuspended in cold PBS on ice and sonicated with a probe sonicator to achieve lysis; endogenous in cells
T2 sequence (O00567 1-594): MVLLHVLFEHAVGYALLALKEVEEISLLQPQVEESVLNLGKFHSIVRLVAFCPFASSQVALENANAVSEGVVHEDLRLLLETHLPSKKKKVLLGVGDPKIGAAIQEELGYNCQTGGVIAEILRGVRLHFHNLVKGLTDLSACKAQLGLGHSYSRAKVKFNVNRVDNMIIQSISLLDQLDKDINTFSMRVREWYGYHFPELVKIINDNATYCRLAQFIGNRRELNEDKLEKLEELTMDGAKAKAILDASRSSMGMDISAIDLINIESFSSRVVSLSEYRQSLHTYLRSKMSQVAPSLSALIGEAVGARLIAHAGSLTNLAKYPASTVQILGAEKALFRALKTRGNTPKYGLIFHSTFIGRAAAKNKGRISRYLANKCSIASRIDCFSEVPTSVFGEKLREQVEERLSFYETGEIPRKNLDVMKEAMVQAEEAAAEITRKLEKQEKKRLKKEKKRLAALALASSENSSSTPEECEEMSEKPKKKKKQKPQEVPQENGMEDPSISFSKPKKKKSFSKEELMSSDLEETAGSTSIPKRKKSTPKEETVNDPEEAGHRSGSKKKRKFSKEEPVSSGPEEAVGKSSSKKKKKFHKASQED
Method in brief: as §1

[2] = biological target: T3, RNF40 E3 ubiquitin-protein ligase BRE1B (Homo sapiens, UniProt O75150)
T3 construct: Cells were resuspended in cold PBS on ice and sonicated with a probe sonicator to achieve lysis; endogenous in cells
Method in brief: as §1

[3] = biological target: T4, SETD1A Histone-lysine N-methyltransferase SETD1A (Homo sapiens, UniProt O15047)
T4 construct: Cells were resuspended in cold PBS on ice and sonicated with a probe sonicator to achieve lysis; endogenous in cells
Method in brief: as §1

[4] = uniprot O00567, in % (unit assumed)

T3 sequence (O75150 whole entry): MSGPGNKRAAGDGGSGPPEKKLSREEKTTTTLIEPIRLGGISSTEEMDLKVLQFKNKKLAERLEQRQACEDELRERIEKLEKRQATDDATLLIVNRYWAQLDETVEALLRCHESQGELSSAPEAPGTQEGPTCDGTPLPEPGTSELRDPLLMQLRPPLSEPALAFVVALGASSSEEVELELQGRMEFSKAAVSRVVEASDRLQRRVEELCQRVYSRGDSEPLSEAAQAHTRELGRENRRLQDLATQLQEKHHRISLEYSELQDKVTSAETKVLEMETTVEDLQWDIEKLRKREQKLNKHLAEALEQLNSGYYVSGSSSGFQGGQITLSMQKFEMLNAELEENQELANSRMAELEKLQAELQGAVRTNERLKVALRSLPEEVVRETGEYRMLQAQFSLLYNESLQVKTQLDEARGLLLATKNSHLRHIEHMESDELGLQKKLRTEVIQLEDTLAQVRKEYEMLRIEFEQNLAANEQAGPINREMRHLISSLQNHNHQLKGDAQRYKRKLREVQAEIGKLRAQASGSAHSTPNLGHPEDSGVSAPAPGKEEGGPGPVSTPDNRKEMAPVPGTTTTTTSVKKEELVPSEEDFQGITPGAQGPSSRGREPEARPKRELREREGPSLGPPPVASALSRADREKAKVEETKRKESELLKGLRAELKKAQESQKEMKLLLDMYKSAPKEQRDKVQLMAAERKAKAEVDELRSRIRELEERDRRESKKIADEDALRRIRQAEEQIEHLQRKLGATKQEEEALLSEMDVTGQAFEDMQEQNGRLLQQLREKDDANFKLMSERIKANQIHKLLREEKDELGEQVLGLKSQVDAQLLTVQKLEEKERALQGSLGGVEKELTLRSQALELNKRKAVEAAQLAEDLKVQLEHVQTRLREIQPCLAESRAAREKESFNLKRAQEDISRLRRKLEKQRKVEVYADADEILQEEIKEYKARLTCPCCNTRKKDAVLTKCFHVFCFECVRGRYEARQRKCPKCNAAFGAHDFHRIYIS
T4 sequence (O15047 whole entry): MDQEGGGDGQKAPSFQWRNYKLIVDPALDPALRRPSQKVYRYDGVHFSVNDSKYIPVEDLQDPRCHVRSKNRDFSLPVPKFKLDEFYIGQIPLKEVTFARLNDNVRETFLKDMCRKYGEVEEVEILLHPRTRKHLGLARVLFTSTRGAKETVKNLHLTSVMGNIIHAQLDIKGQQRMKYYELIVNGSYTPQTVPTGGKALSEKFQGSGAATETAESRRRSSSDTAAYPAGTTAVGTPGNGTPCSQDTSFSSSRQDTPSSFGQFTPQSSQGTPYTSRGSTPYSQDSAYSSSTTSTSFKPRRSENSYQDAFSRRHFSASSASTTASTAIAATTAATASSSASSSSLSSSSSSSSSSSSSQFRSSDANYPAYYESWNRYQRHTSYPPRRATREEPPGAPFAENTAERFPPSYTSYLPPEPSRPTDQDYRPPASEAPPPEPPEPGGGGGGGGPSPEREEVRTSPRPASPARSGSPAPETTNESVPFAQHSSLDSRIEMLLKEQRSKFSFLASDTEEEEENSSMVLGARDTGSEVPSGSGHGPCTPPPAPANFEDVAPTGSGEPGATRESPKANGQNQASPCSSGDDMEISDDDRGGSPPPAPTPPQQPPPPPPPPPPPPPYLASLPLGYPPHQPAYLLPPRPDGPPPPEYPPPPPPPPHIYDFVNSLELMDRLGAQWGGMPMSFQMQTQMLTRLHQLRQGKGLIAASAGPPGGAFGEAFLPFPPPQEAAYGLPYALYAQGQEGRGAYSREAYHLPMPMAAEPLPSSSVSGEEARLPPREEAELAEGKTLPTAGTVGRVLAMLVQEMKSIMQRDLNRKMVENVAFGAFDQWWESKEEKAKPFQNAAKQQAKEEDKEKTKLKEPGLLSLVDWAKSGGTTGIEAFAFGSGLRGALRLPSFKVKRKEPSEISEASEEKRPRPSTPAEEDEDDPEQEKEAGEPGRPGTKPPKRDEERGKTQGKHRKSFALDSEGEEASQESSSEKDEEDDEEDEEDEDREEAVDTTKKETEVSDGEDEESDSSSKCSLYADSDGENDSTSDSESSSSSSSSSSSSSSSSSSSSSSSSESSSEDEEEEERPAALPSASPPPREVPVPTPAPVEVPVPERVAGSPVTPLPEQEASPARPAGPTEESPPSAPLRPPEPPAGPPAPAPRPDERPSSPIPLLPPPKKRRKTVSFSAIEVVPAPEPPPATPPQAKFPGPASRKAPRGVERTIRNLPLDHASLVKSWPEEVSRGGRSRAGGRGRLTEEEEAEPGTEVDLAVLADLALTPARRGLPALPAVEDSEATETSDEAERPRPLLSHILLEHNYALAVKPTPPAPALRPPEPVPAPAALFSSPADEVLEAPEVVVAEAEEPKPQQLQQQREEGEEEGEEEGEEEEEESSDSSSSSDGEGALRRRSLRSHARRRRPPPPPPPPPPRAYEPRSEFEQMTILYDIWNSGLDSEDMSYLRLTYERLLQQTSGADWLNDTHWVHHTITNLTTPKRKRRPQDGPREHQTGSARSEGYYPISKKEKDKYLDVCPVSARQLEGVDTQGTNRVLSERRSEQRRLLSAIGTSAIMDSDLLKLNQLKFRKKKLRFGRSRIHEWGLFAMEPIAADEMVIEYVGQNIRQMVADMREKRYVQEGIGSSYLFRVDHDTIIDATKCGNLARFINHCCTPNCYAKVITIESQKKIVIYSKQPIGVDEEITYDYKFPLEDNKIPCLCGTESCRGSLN

COc1ccc2c(c1)CCCN2C(=O)CCl [KB02]
Liganded (LGMN Legumain; LGMN Res# 50, uniprot Q99538): YES
100 Max (LGMN Legumain): 33.6
100 ave (LGMN Legumain): 20.31
500 Max (LGMN Legumain): 78.38
500 ave (LGMN Legumain): 78.38
Liganded ([1]; NOP56 Res# 211, uniprot O00567): YES
percent_inhibition ([2]; 500 uM, UniProt O75150): 24%
Liganded ([2]; RNF40 Res# 890, uniprot O75150): YES
Liganded ([3]; SETD1A Res# 1648, uniprot O15047): YES

O=C(CCl)Nc1cc(C(F)(F)F)cc(C(F)(F)F)c1 [KBO3]
100 Max (LGMN Legumain): 12.45
100 ave (LGMN Legumain): 0.755
500 Max (LGMN Legumain): 60.93
500 ave (LGMN Legumain): 60.93
100 ave ([1]; uniprot O00567): 27.36
500 ave ([1]; uniprot O00567): 68.12
100 Max [1, 4]: 51.21
500 Max [1, 4]: 68.12
100 ave ([2]; uniprot O75150): −9.9
500 Max ([2]; uniprot O75150): 29.2
500 ave ([2]; uniprot O75150): 24.5
100 Max ([2]; uniprot O75150, in % (unit assumed)): −5.2
100 Max ([3]; uniprot O15047): 15.12
100 ave ([3]; uniprot O15047): −0.4575
500 Max ([3]; uniprot O15047): 40.15
500 ave ([3]; uniprot O15047): 38.365
